{"source": "patent US5912266A", "about": "“Beta2 integrin cell adhesion molecule inhibitors” (American Home Products Corporation, priority 1997, dated 1999)", "system": "β2 integrin", "assay": "Adhesion of activated, β2 integrin-expressing HL60 cells to recombinant soluble ICAM-1", "type": "cell-based, human", "conditions": "for Percent Cells Bound: single well", "protocol": "HL60 cells were provided by the American Type Culture Collection (ATCC No. CCL240) and were used between passages 20 to 30 as the control β2 integrin expressing cells, following stimulation for exactly four days in culture media containing dimethylsulfoxide (DMSO). Culture media was comprised of RPMI 1640 (Gibco No. 3201870AJ) supplemented with Penicillin (100 Units/ml)/Streptomycin Sulfate ([…]) (Gibco No. 600-5145AE), L-Glutamine (2 mM) (Gibco No. 320-5030PG), and 10% heat inactivated fetal bovine serum (FBS, Hyclone No. A-1111L). Fetal bovine serum was heat inactivated by incubating in a 56° C. water bath for 30 minutes. Stimulation of the expression of the β2 integrin on HL60 cells was achieved by growing the cells at a density of 2.5×10^5 cells per ml of culture media for four days in the presence of 1.25% DMSO. Following the removal of the DMSO containing media, the β2 integrin on these cells was activated to a high affinity ICAM-1 binding state by the addition of 0.1 nM of (PMA) and PMN Buffer. This buffer was comprised of Hank's balanced salt solution (HBSS) supplemented with 1.2 mM calcium chloride, 1 mM magnesium chloride, 2% glucose, […] HEPES buffer. The ICAM-1 used to measure the adhesion of β2 integrin-bearing cells was obtained from cloning and expression of recombinant, soluble, human ICAM-1 using a baculovirus expression system and standard molecular biology technology. Soluble ICAM-1 was cloned by cleaving ICAM-1 DNA, purchased from R & D Systems, with restriction enzymes to obtain DNA that codes for the soluble (non-membrane) form of the protein. […] The soluble ICAM-1 was purified by passing the media from the ICAM-1 expressing cells over an anti-ICAM-1 antibody-linked sepharose column prepared using a standard immunoaffinity chromatography kit obtained from Pierce Inc.\n200 ng of purified, recombinant, soluble ICAM-1 contained in 100 μl of PBS was added to wells of a flat bottom, 96 well EIA/RIA plate (Corning No. 25801), covered with an adhesive backed plate sealer (Linbro No. 76-401-05) and incubated for at least 18 hours at 4° C. to allow ICAM-1 to bind to the assay wells, prior to the addition of the β2 integrin expressing HL60 cells.\nHL60 cells were grown in 1.25% DMSO for 4 days and pelleted by centrifugation in a Sorvall RT6000 tabletop centrifuge for 5 minutes, 1000 rotations per minute (rpm), at room temperature. The resulting HL60 cell pellet was resuspended in 50 ml sterile Dulbecco's phosphate buffered saline (dPBS) (Gibco No. 310-4040AJ). The resulting cell pellet was resuspended in 50 ml dPBS and the cell concentration was determined using a hemacytometer. The cells were pelleted as described above and resuspended in PMN Buffer to 15 to 20×10^6 cells/ml. The resuspended HL60 cells were fluorescently labeled by mixing the cells with an equal volume of a 25 μM solution of Calcein AM (Molecular Probes No. C-1430) dye that had been dissolved in PMN Buffer. HL60 cells in the calcein AM solution was incubated in a 37° C. waterbath for 10 minutes with intermittent swirling of the reaction tube. The labeling reaction was stopped by the addition of 13 ml of ice-cold PMN Buffer and the cells were pelleted by centrifugation at 2000 rpm for 5 minutes at 4° C.\nThe labeled cell pellet was resuspended in 15 ml of ice-cold PMN Buffer and the cell density was determined using a hemacytometer. Cells were then pelleted by centrifugation at 2000 rpm for 5 minutes followed by resuspension in ice-cold PMN Buffer to 2×10^5 cells/40 μl. The labeled cell suspension was placed in the dark at room temperature while asperlin containing solutions were prepared.\nAsperlin was solubilized in 100% DMSO at a concentration of 50 mg/ml. This stock was then diluted to 400 μg/ml with PMN Buffer and serial dilutions of the 400 μg/ml asperlin solution were prepared using PMN buffer containing 2% DMSO to obtain solutions ranging from 200 μg/ml to 1.56 μg/ml. […]", "note": "Where “and” joins values, the source holds several entries; their conditions need not be identical. Equal values may be shown once.", "data": [{"smiles": "CC(=O)OC1C=CC(=O)OC1C1OC1C", "note": "[Asperlin, 6,7-Anhydro-2,3,8-trideoxy-D-galacto-oct-2-enoic acidδ-lactone 4-acetate]", "values": [{"measurement": "% Inhibition of Cell Adhesion", "setting": "Asperlin 1.56 μg/ml", "result": -8, "unit": "%"}, {"measurement": "Average Percent Cells Bound", "setting": "Asperlin 1.56 μg/ml", "result": 26, "unit": "%"}, {"measurement": "Bound Cell Fluorescence", "setting": "Asperlin 1.56 μg/ml", "result": "1551 fluorescence units/well and 1755 fluorescence units/well"}, {"measurement": "Percent Cells Bound", "setting": "Asperlin 1.56 μg/ml", "result": "25% and 27%"}, {"measurement": "% Inhibition of Cell Adhesion", "setting": "Asperlin 3.125 μg/ml", "result": -36, "unit": "%"}, {"measurement": "Average Percent Cells Bound", "setting": "Asperlin 3.125 μg/ml", "result": 33, "unit": "%"}, {"measurement": "Bound Cell Fluorescence", "setting": "Asperlin 3.125 μg/ml", "result": "1862 fluorescence units/well and 2077 fluorescence units/well"}, {"measurement": "Percent Cells Bound", "setting": "Asperlin 3.125 μg/ml", "result": "32% and 34%"}, {"measurement": "% Inhibition of Cell Adhesion", "setting": "Asperlin 6.25 μg/ml", "result": 29, "unit": "%"}, {"measurement": "Average Percent Cells Bound", "setting": "Asperlin 6.25 μg/ml", "result": 17, "unit": "%"}, {"measurement": "Bound Cell Fluorescence", "setting": "Asperlin 6.25 μg/ml", "result": "1003 fluorescence units/well and 1161 fluorescence units/well"}, {"measurement": "Percent Cells Bound", "setting": "Asperlin 6.25 μg/ml", "result": "15% and 19%"}, {"measurement": "% Inhibition of Cell Adhesion", "setting": "Asperlin 12.5 μg/ml", "result": 50, "unit": "%"}, {"measurement": "Average Percent Cells Bound", "setting": "Asperlin 12.5 μg/ml", "result": 12, "unit": "%"}, {"measurement": "Bound Cell Fluorescence", "setting": "Asperlin 12.5 μg/ml", "result": "589 fluorescence units/well and 768 fluorescence units/well"}, {"measurement": "Percent Cells Bound", "setting": "Asperlin 12.5 μg/ml", "result": "10% and 13%"}, {"measurement": "% Inhibition of Cell Adhesion", "setting": "Asperlin 25 μg/ml", "result": 83, "unit": "%"}, {"measurement": "Average Percent Cells Bound", "setting": "Asperlin 25 μg/ml", "result": 4, "unit": "%"}, {"measurement": "Bound Cell Fluorescence", "setting": "Asperlin 25 μg/ml", "result": "171 fluorescence units/well and 320 fluorescence units/well"}, {"measurement": "Percent Cells Bound", "setting": "Asperlin 25 μg/ml", "result": "2.6% and 5.3%"}, {"measurement": "% Inhibition of Cell Adhesion", "setting": "Asperlin 50 μg/ml", "result": 94, "unit": "%"}, {"measurement": "Average Percent Cells Bound", "setting": "Asperlin 50 μg/ml", "result": 1.4, "unit": "%"}, {"measurement": "Bound Cell Fluorescence", "setting": "Asperlin 50 μg/ml", "result": "82 fluorescence units/well and 77 fluorescence units/well"}, {"measurement": "Percent Cells Bound", "setting": "Asperlin 50 μg/ml", "result": "1.4% and 1.3%"}, {"measurement": "% Inhibition of Cell Adhesion", "setting": "Asperlin 100 μg/ml", "result": 97.5, "unit": "%"}, {"measurement": "Average Percent Cells Bound", "setting": "Asperlin 100 μg/ml", "result": 0.6, "unit": "%"}, {"measurement": "Bound Cell Fluorescence", "setting": "Asperlin 100 μg/ml", "result": "45 fluorescence units/well and 31 fluorescence units/well"}, {"measurement": "Percent Cells Bound", "setting": "Asperlin 100 μg/ml", "result": "0.7% and 0.5%"}, {"measurement": "% Inhibition of Cell Adhesion", "setting": "Asperlin 200 μg/ml", "result": 98, "unit": "%"}, {"measurement": "Average Percent Cells Bound", "setting": "Asperlin 200 μg/ml", "result": 0.5, "unit": "%"}, {"measurement": "Bound Cell Fluorescence", "setting": "Asperlin 200 μg/ml", "result": "29 fluorescence units/well and 28 fluorescence units/well"}, {"measurement": "Percent Cells Bound", "setting": "Asperlin 200 μg/ml", "result": 0.5, "unit": "%"}, {"measurement": "Effect on adhesion of activated β2 integrin expressing cells to ICAM-1 (in words)", "setting": "summary of Table I", "result": "blocks the adhesion of activated β2 integrin expressing cells to ICAM-1"}]}]}
